From US20030022909A1, “Use of methylnaltrexone to treat immune suppression” (University of Chicago, priority 2001, published 2003)
Read-outs that look alike come from different tables or passages of the source.

Assays:
[1] = test system: blood lymphocyte responses; details: cited from earlier work
[2] = test system: immune system effects of systemic morphine; details: rats, cited from earlier work
[3] = white crystalline powder as provided; cited from earlier work
natural killer cells = test: Animal study: number of natural killer cells in mice after treatment; assay type: in vivo; details: ten mice per group
[4] = cited from earlier work
[5] = microinjection into the third ventricle

| Compound | analgesic responses [1, 5] | inhibition of blood lymphocyte responses [1, 5] [%] | plasma corticosterone concentration [1, 5] | effect on lymphocyte proliferation, plasma corticosterone concentrations or analgesic responses ([1]; systemic administration) | antagonism of immune system effects of systemic morphine injection ([2]; administered intracerebroventricularly) | antagonism of immune system effects of systemic morphine injection ([2]; administered subcutaneously) | solubility in water [3] | number of natural killer cells present after treatment compared to Group 1 (control) (natural killer cells; Group 3: methylnaltrexone and morphine) | overt side effects ([4]; intravenous 0.45 mg/kg, volunteers) | half-life ([4]; intravenous compound) | number of natural killer cells present after treatment compared to Group 1 (control) (natural killer cells; Group 2: placebo and morphine) |
| --- | --- | --- | --- | --- | --- | --- | --- | --- | --- | --- | --- |
| C[N+]1(C)CC[C@]23c4c5ccc(O)c4O[C@H]2[C@@H](O)C=C[C@H]3[C@@H]1C5 [N-methylmorphine] | maximal analgesic responses were present | 70 | significantly elevated | did not effect |  |  |  |  |  |  |  |
| C[N@+]1(CC2CC2)CC[C@]23c4c5ccc(O)c4O[C@H]2C(=O)CC[C@@]3(O)[C@H]1C5 [methylnaltrexone, N-cyclopropylmethylnoroxymorphine-methobromide] |  |  |  |  | antagonize most of the immune system effects | failed to do so | freely soluble in water | comparable number of natural killer cells to Group 1 | not associated with any overt side effects | less than two |  |
| CN1CC[C@]23c4c5ccc(O)c4O[C@H]2[C@@H](O)C=C[C@H]3[C@H]1C5 [morphine] | maximal analgesic responses were present | 70 |  |  |  |  |  |  |  |  | significant decrease in the number of natural killer cells |
